Patent US20240116984A1, “MODIFIED PEPTIDES FOR THE INHIBITION OF ABNORMAL TAU ACCUMULATION” (University of Notre Dame du Lac, priority 2021, published 2024)
Entries after “also recorded” stand apart in the source; their conditions may differ. Starred links: 1 amine or outer side, 2 acyl side, 3 side chain; linkers in the order of their positions; H or OH if unused. Non-standard residues stand in square brackets, D forms with d. Residues, ends and D or L forms follow the SMILES beside them. Primed or numbered codes have the meaning given here. *: point of attachment. aIle′ = Ile with backbone N-amino (N-aminated amide nitrogen), CC[C@H](C)[C@@H](C(=O)[*:2])N(N)[*:1]; aVal = Val with backbone N-amino (N-aminated amide nitrogen), CC(C)[C@@H](C(=O)[*:2])N(N)[*:1]; X2 = NN([C@@H](Cc1ccc(O)cc1)C(=O)[*:2])[*:1]; X1 = CC[C@H](C)[C@@H](C(=O)[*:2])N(N)[*:1]; N(NH2)LysNH2 = NCCCC[C@@H](C(N)=O)N(N)*; X3 = CC(C)[C@@H](C(=O)[*:2])N(N)[*:1]; N(NH2)Lys = NCCCC[C@H](NN)C(=O)O

How the values were obtained:
[1] = test system: tauP301L fibrils; assay: Transmission electron microscopy of heparin-induced tauP301L fibrils; assay type: biochemical, human; conditions: two-fold molar excess of inhibitor, 96 h
Description: For analyzing fibrils by transmission electron microscopy (TEM), aggregation was carried out under conditions similar to the assay above but with ThT excluded and a final reaction volume of 100 μL Samples were incubated in a microcentrifuge tube for 4 days at 37° C. with a mixing speed of 100 rpm. A 10 μL aliquot of the sample was then applied to 400-meshed formvar/carbon-coated copper grids and negative stained with 2% uranyl-acetate. Micrographs were taken on a JEOL 2011 TEM at 200 kV.

[2] = test system: Recombinant tauP301L (0N4R); assay: Thioflavin T (ThT) fluorescence aggregation assay of recombinant tauP301L; assay type: biochemical, human; conditions: Tau 10 μM : inhibitor 20 μM (2-fold molar excess), heparin, 48 h
Description: Recombinant tauP301L (10 μM final concentration) and NAP inhibitors 20 μM final concentration) were mixed in an aggregation buffer (100 mM sodium acetate, 10 μM ThT, 10 μM heparin, 2 mM DTT, 0.5% DMSO, pH 7.4) in a 96-well clear bottom black plate with a final reaction volume of 200 μL. The plate was then sealed with a clear sealing film and allowed to incubate at 37° C. with continuous shaking in a Biotek Synergy H1 microplate reader. An automated method was used to carry out ThT fluorescence measurements at an excitation wavelength of 444 nm and an emission wavelength of 485 nm at an interval of every 5 minutes for 48 hours. Experiments were carried out in technical replicates on at least two different days. Every experiment included control wells that lacked tau301L, heparin, or NAPs. The average of tau-only (no heparin) wells was used to subtract background fluorescence and the average of the first and last 10 data points of tau+heparin wells, after blank subtraction, was used to normalize the data. All data plots were generated with SigmaPlot.

[3] = test system: HEK293 cells stably expressing tau-RD (P301L/V337M)-YFP; assay type: cell-based, human; conditions: 36 h
Description: TauP301L was diluted to a final concentration of 10 μM in an aggregation buffer containing 100 mM sodium acetate, 10 μM heparin, 2 mM DTT, pH 7.4. The protein was incubated in a microcentrifuge tube for 4 days at 37° C. with a shaking speed of 100 rpm. Control vials included those wherein (1) buffer was added in place of tauP301L, and (2) buffer was added in place of heparin.
(§1) HEK293 cells stably expressing tau-RD (LM)-YFP were cultured in DMEM media containing 10% FBS, 1% penicillin/streptomycin, and 1% Glutamax™ (Gibco) in a 75 cm^2 cell culture flask under 5% CO2 at 37° C. For each experiment, cells were plated at a density of 15000 cells/well into 96 well tissue culture plates.
TauP301L fibrils were prepared as described above (see section on fibril formation) and sonicated for 3 minutes prior to use in this assay. In a reaction volume of 40 μL, 8 μL of fibrils was diluted with 31 μL of low-serum Opti-MEM® (Gibco) media and then mixed with 1 μL of NAPs (DMSO concentration was constant across various concentration of inhibitors). […] IC50 values were calculated by fitting the data set using sigmoidal logistic 4 parameter equation. Error bars represent standard deviation from technical replicates. % Tau infection was calculated using following formula: […]

[4] = Human serum stability assay; assay type: in vitro ADME; conditions: 25% human serum, 24 h
Description: The stability of NAPs in 25% human serum (Millipore Sigma) was assessed by HPLC. The reaction was started by adding NAPs at a final concentration of 500 μM in pre-warmed serum. The mixture was incubated at 37° C. for 24 h. A 100 μL aliquot of the reaction mixture was taken out at 0 h, 1 h, 4 h, and 24 h and was mixed with an equal volume of 20% TCA and incubated at 4° C. for 15 minutes to precipitate serum proteins. After centrifugation at 12000 rpm for 10 min, the supernatant was collected and mixed with an internal standard (1 mg/mL of Cbz-Tyr-OH dissolved in MeCN) and stored at −20° C. Samples were then analyzed by LC-MS and the percentage of peptide remaining was calculated by integrating peaks.

[5] = test system: human neuroblastoma SH-SY5Y cells; assay: MTT cell viability assay on SH-SY5Y cells; assay type: cell-based; conditions: 10 μM and 50 μM, 48 h
Description: MTT cell viability assays were carried out on both HEK293 cells stably expressing tau-RD (LM)-YFP and SH-SY5Y cells. Cells were cultured in DMEM/F12 complete media containing 10% FBS, 1% penicillin/streptomycin and 1% Glutamax™ (Gibco) in a 75 cm^2 cell culture flask under 5% CO2 at 37° C. Cell viability was determined using MTT reduction assay. Briefly, 15,000 cells/well were plated in a 96 well tissue culture plate and were allowed to incubate overnight in a CO2 incubator. The media was aspirated, and the NAP inhibitor prepared in complete media was added at a given final concentration. The plate was then allowed to incubate for additional 48 h in a CO2 incubator and the media was aspirated again and replaced with 0.5 mg/mL of MTT prepared in complete media and incubated for additional 3 h. Media was then replaced with DMSO to dissolve formazan crystals and the absorbance was measured at 570 nm using Synergy H1 micro plate reader. Each data set were collected from technical replicates on at least two different days.

[6] = test system: HEK293 cells stably expressing tau-RD (P301L/V337M)-YFP; assay: Cellular seeding assay, seeding by monomeric tau co-incubated with NAPs; assay type: cell-based, human; conditions: 0.19 μM Tau, 4 days co-incubation, cells 48 h
Description: as §1
Monomeric tauP301L was co-incubated with NAPs for 4 days in an aggregation buffer at 37° C. (see above section). Following incubation, the reaction mixture was diluted in low serum Opti-MEM® media (Gibco), mixed with lipofectamine 2000 in 20:1 ratio (complex:lipofectamine) and allowed to incubate for an additional 20 minutes at RT. A mixture of 0.19 μM of Tau+1.9 μM or 0.009 μM of inhibitors (final concentrations) was added to the cells. Cells were incubated for additional 48 h before taking measurements on a BioTek Cytation 5 cell imager and microplate reader. 10×10 pictures/well were taken at 20× magnification under FITC channel and the punctate counting was carried out using built-in software. Each data set was collected from technical replicates on at least two different days. Every experiment included control wells (no tau, no heparin, and no NAP). All data plots were generated with SigmaPlot. Error bars shown are standard deviation from technical replicates.

[7] = target: T1, synthetic, full-length Aβ42 (Homo sapiens, UniProt P05067); assay: ThT fluorescence assay with Aβ42; assay type: biochemical; conditions: Aβ42 40 μM
T1 construct: synthetic, full-length Aβ42 (40 μM)
T1 sequence (P05067 672-713 limits assumed): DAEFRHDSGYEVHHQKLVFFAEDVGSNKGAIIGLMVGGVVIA
Description: A peptidomimetic approach to tau inhibition offers prospects for achieving selectivity over other amyloids rich in β structure. As a preliminary test, the best-performing tau mimic, compound 12 (EG09; SEQ ID NO: 18), was selected and its effect on Aβ42 aggregation in vitro was determined (FIG. 11).

Row | Molecule | fibril morphology / inhibition of Tau fibril formation by TEM [1] | effect on end-point ThT fluorescence of tauP301L (inhibition of Tau aggregation) [2] | also measured
1 | Ac-aVal-Gln-aIle-Val-aTyr-Lys-NH2 [Compound 14] | did not inhibit Tau fibril formation |  | 
2 | Ac-Val-Gln-Ile-Val-Tyr-aLys-NH2 (Ac-VQIVY[N(NH2)Lys]-NH2; SMILES CC[C@H](C)[C@H](NC(=O)[C@H](CCC(N)=O)NC(=O)[C@@H](NC(C)=O)C(C)C)C(=O)N[C@H](C(=O)N[C@@H](Cc1ccc(O)cc1)C(=O)N(N)[C@@H](CCCCN)C(N)=O)C(C)C) [Compound 9] | did not inhibit Tau fibril formation |  | 
3 | Ac-Val-Gln-aIle-Val-Tyr-Lys-NH2 (Ac-VQ[aIle′]VYK-NH2; SMILES CC[C@H](C)[C@@H](C(=O)N[C@H](C(=O)N[C@@H](Cc1ccc(O)cc1)C(=O)N[C@@H](CCCCN)C(N)=O)C(C)C)N(N)C(=O)[C@H](CCC(N)=O)NC(=O)[C@@H](NC(C)=O)C(C)C) [Compound 6] | short, immature rod-like fibrils | significantly reduce | 
4 | CC[C@H](C)[C@H](NC(=O)[C@H](CCC(N)=O)NC(=O)[C@@H](NC(C)=O)C(C)C)C(=O)N(N)[C@H](C(=O)N[C@@H](Cc1ccc(O)cc1)C(=O)N(N)[C@@H](CCCCN)C(N)=O)C(C)C [Compound 13, Ac-Val-Gln-Ile-aVal-Tyr-aLys-NH2] (Ac-VQI[X3]Y-{N(NH2)LysNH2}) |  |  | IC50 [3]: ~5 µM; stability in human serum [4]: remarkably stable; cytotoxic effect, MTT assay [5]: no appreciable toxicity; also recorded: non-cytotoxic
5 | Ac-aVal-Gln-aIle-Ile-Asn-Lys-NH2 (Ac-[aVal]Q[aIle′]INK-NH2; SMILES CC[C@H](C)[C@H](NC(=O)[C@H]([C@@H](C)CC)N(N)C(=O)[C@H](CCC(N)=O)NC(=O)[C@H](C(C)C)N(N)C(C)=O)C(=O)N[C@@H](CC(N)=O)C(=O)N[C@@H](CCCCN)C(N)=O) [Compound 4] | non-fibrillary amorphous aggregates; also recorded: non-fibrillary, amorphous aggregates | significantly reduce | seeding capacity of monomeric tauP301L pre-treated with inhibitor ([6]; 0.009 μM inhibitor): far weaker anti-seeding activity; seeding capacity of monomeric tauP301L pre-treated with inhibitor ([6]; 1.9 μM inhibitor): far weaker anti-seeding activity
6 | Ac-aVal-Gln-Ile-Val-Tyr-Lys-NH2 (Ac-[aVal]QIVYK-NH2; SMILES CC[C@H](C)[C@H](NC(=O)[C@H](CCC(N)=O)NC(=O)[C@H](C(C)C)N(N)C(C)=O)C(=O)N[C@H](C(=O)N[C@@H](Cc1ccc(O)cc1)C(=O)N[C@@H](CCCCN)C(N)=O)C(C)C) [Compound 5] | short, immature rod-like fibrils | significantly reduce | 
7 | Ac-aVal-Gln-aIle-Val-Tyr-Lys-NH2 (Ac-[aVal]Q[aIle′]VYK-NH2; SMILES CC[C@H](C)[C@@H](C(=O)N[C@H](C(=O)N[C@@H](Cc1ccc(O)cc1)C(=O)N[C@@H](CCCCN)C(N)=O)C(C)C)N(N)C(=O)[C@H](CCC(N)=O)NC(=O)[C@H](C(C)C)N(N)C(C)=O) [Compound 10] | did not inhibit Tau fibril formation |  | 
8 | CC[C@H](C)[C@@H](C(=O)N[C@H](C(=O)N(N)[C@@H](Cc1ccc(O)cc1)C(=O)N[C@@H](CCCCN)C(N)=O)C(C)C)N(N)C(=O)[C@H](CCC(N)=O)NC(=O)[C@@H](NC(C)=O)C(C)C [Compound 12, Ac-Val-Gln-aIle-Val-aTyr-Lys-NH2] (Ac-VQ[X1]V[X2]K-NH2) | non-fibrillary amorphous aggregates; also recorded: non-fibrillary, amorphous aggregates | significantly reduce | seeding capacity of monomeric tauP301L pre-treated with inhibitor ([6]; 0.009 μM inhibitor): less pronounced; seeding capacity of monomeric tauP301L pre-treated with inhibitor ([6]; 1.9 μM inhibitor): significantly reduced seeding capacity; IC50 [3]: ~5 µM; stability in human serum [4]: remarkably stable; also recorded: serum stable; cytotoxic effect, MTT assay [5]: no appreciable toxicity; also recorded: non-cytotoxic; also recorded: non-toxic to neuronal cells; effect on lag-time of Aβ42 aggregation ([7]; any of the concentrations tested): no effect on lag-time; inhibitory effect on Aβ42 aggregation ([7]; compound up to 4-fold molar excess (160 μM), ThT): no inhibitory effect
9 | Ac-Val-Gln-aIle-Ile-Asn-Lys-NH2 (Ac-VQ[aIle′]INK-NH2; SMILES CC[C@H](C)[C@H](NC(=O)[C@H]([C@@H](C)CC)N(N)C(=O)[C@H](CCC(N)=O)NC(=O)[C@@H](NC(C)=O)C(C)C)C(=O)N[C@@H](CC(N)=O)C(=O)N[C@@H](CCCCN)C(N)=O) [Compound 2] | short, immature rod-like fibrils | significantly reduce | 
